Results published in patent publication US20100022509A1, “Inhibitors of MshC and Homologs Thereof, and Methods of Identifying Same” (priority 2006, published 2010).
Like-named read-outs stand apart in the source and are kept apart here.

Key:
[1] = target: T1, MshC (Mycobacterium tuberculosis, UniProt P9WJM9); experiment: biochemical; type: biochemical, M. tuberculosis
T1 sequence (P9WJM9 1-414): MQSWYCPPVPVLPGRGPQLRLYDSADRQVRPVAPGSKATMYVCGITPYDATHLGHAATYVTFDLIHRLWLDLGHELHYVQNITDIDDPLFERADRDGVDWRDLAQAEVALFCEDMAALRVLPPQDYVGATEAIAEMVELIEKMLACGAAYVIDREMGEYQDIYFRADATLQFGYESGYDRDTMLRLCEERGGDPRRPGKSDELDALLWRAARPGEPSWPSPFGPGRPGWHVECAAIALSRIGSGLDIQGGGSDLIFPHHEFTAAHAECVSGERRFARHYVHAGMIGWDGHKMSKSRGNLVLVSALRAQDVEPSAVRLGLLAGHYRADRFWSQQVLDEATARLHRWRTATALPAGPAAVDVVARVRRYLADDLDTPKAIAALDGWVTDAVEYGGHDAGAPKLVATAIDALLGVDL

[2] = target: T1, MshC; experiment: Inhibition studies of MshC ligase activity (HEPES pH 7.5, HPLC); type: biochemical, M. tuberculosis; conditions: for % inhibition: 50 μM GlcN-Ins and 70 μM Cys

O=C(NCCCN1CCCC1)c1ccc2c(c1)N(Cc1cccc(Cl)c1)C(=O)c1ccccc1S2 [Inhibitor 1779]
inhibition of MshC in words, 1,3-diaminopropyl residue with remote amino residue capable of protonation [1]: measurable inhibition
inhibition of MshC in words, Z is a benzyl moiety bearing one or more halogens [1]: Measurable inhibition
IC50 ([1]; IC50, μM): 135 ± 30 µM
inhibition of MshC in words, compounds grouped by X ([1]; X=S, X=SO, X=SO2): Significant inhibition

CCC1CCCCN1CCCNC(=O)c1ccc2c(c1)N(Cc1ccccc1F)C(=O)c1ccccc1[S+]2[O-] (centres unmarked) [Inhibitor 83-01]
IC50 ([1]; IC50): > 3000 µM

O=C(NCCCSC1CCCCC1)c1ccc2c(c1)N(Cc1ccccc1F)C(=O)c1ccccc1[S+]2[O-] (centres unmarked) [Inhibitor 83-04]
IC50 ([1]; IC50): > 3000 µM

Cc1ccc(C)c(CN2C(=O)c3ccccc3S(=O)(=O)c3ccc(C(=O)NCCN4CCCCC4)cc32)c1 [Inhibitor 1173]
IC50 ([1]; IC50, μM): > 2000 µM

O=C(NCCCN1CCN(c2cccc(Cl)c2)CC1)c1ccc2c(c1)N(Cc1ccc(Cl)cc1)C(=O)c1ccccc1S2(=O)=O [Inhibitor 83-26]
inhibition of MshC in words, compounds lacking the basic amino group or with groups in excess of 10 carbons on the remote amino residue [1]: little or no inhibition
IC50 ([1]; IC50): > 3000 µM

O=C(NCCCN1CCC(Cc2ccccc2)CC1)c1ccc2c(c1)N(Cc1ccccc1F)C(=O)c1ccccc1[S+]2[O-] (centres unmarked) [Inhibitor 83-02]
inhibition of MshC in words, compounds lacking the basic amino group or with groups in excess of 10 carbons on the remote amino residue [1]: little or no inhibition
IC50 ([1]; IC50): > 3000 µM

O=C(NCCCSC1CCCCC1)c1ccc2c(c1)N(Cc1cccc(Cl)c1)C(=O)c1ccccc1S2(=O)=O [Inhibitor 1964]
inhibition of MshC in words, compounds lacking the basic amino group or with groups in excess of 10 carbons on the remote amino residue [1]: little or no inhibition
IC50 ([1]; IC50, μM): > 3000 µM

CCC1CCCCN1CCCNC(=O)c1ccc2c(c1)N(Cc1ccc(Cl)cc1)C(=O)c1ccccc1S2(=O)=O (centres unmarked) [Inhibitor 83-27]
inhibition of MshC in words, 1,3-diaminopropyl residue with remote amino residue capable of protonation [1]: measurable inhibition
inhibition of MshC in words, Z is a benzyl moiety bearing one or more halogens [1]: Measurable inhibition
IC50 ([1]; IC50): 700 ± 250 µM
inhibition of MshC in words, compounds grouped by X ([1]; X=S, X=SO, X=SO2): Significant inhibition

CCN1CCN(CCCNC(=O)c2ccc3c(c2)N(Cc2ccccc2)C(=O)c2ccccc2S3(=O)=O)CC1 [Inhibitor 83-50]
IC50 ([1]; IC50): > 3000 µM

N[C@@H](CS)C(=O)N[C@H]1[C@@H](OC2[C@H](O)[C@H](O)C(O)[C@H](O)[C@H]2O)O[C@H](CO)[C@@H](O)[C@@H]1O (some centres unmarked) [Cys-GlcN-Ins, cysteinyl glucosaminyl inositol]
inhibition (feedback) [2]: < 1.0%

CN(CCCNC(=O)c1ccc2c(c1)N(Cc1ccc(Cl)cc1)C(=O)c1ccccc1S2(=O)=O)c1ccccc1 [Inhibitor 83-36]
IC50 ([1]; IC50): > 3000 µM

CCCN(CCC)CCCNC(=O)c1ccc2c(c1)N(CC)C(=O)c1ccccc1[S+]2[O-] (centres unmarked) [Inhibitor 83-16]
IC50 ([1]; IC50): > 3000 µM

O=C(NCCCN1CCOCC1)c1ccc2c(c1)N(Cc1cccc(Cl)c1)C(=O)c1ccccc1S2 [Inhibitor 1937]
inhibition of MshC in words, 1,3-diaminopropyl residue with remote amino residue capable of protonation [1]: measurable inhibition
inhibition of MshC in words, Z is a benzyl moiety bearing one or more halogens [1]: Measurable inhibition
IC50 ([1]; IC50, μM): 780 ± 120 µM
inhibition of MshC in words, compounds grouped by X ([1]; X=S, X=SO, X=SO2): Significant inhibition

CC1CC(C)CN(CCCNC(=O)c2ccc3c(c2)N(Cc2ccc(Cl)cc2)C(=O)c2ccccc2S3(=O)=O)C1 (centres unmarked) [Inhibitor 83-29]
IC50 ([1]; IC50): > 3000 µM

O=C(NCC1CCN(Cc2ccccc2)CC1)c1ccc2c(c1)N(Cc1cccc(Cl)c1)C(=O)c1ccccc1S2(=O)=O [Inhibitor 83-80]
IC50 ([1]; IC50): > 3000 µM

CN(CCCNC(=O)c1ccc2c(c1)N(Cc1ccccc1F)C(=O)c1ccccc1[S+]2[O-])C1CCCCC1 (centres unmarked) [Inhibitor 83-03]
IC50 ([1]; IC50): > 3000 µM

O=C(NCC1CCCN1)c1ccc2c(c1)N(Cc1cccc(Cl)c1)C(=O)c1ccccc1S2(=O)=O (centres unmarked) [Inhibitor 1947]
inhibition of MshC in words, Z is a benzyl moiety bearing one or more halogens [1]: Measurable inhibition
inhibition of MshC in words, compounds grouped by X [1]: Significant inhibition
IC50 ([1]; IC50, μM): 2300 ± 300 µM

CC(=O)N[C@@H](CS)C(=O)N[C@H]1[C@@H](OC2[C@H](O)[C@H](O)C(O)[C@H](O)[C@H]2O)O[C@H](CO)[C@@H](O)[C@@H]1O (stereo partly drawn) [MSH, 1-D-myo-inosityl 2-(N-acetyl-L-cysteinyl)amido-2-deoxy-α-D-glucopyranoside]
inhibition of the ligase activity, in words ([2]; 1 and 5 mM, physiologic levels): minimal inhibition
% inhibition ([2]; [inhibitor] 1000 μM): 4 ± 3%
% inhibition ([2]; [inhibitor] 5000 μM): 7 ± 5%

CC(C)CN(CCCNC(=O)c1ccc2c(c1)N(Cc1cccc(Cl)c1)C(=O)c1ccccc1[S+]2[O-])CC(C)C (centres unmarked) [Inhibitor 83-67]
IC50 ([1]; IC50): ~3000 µM
